Experimental data reported in ChEMBL document CHEMBL1201862, “PubChem BioAssay data set” (2004).
Active and inactive are the calls of the source. Rule as the data show it, for most assays here: actives have a measured EC50 and inactives only a lower limit.

biological target: T1, Protein RecA (Mycobacterium tuberculosis, UniProt P9WHJ3); experiment: Fluorescence Cell-Free Homogeneous Dose Retest to Identify Inhibitors of RecA-Intein Splicing Activity. [Related pubchem assays (depositor defined):AID2097, AID2223, AID489010, AID492950]; assay type: functional; details: not given
T1 sequence (P9WHJ3 whole entry): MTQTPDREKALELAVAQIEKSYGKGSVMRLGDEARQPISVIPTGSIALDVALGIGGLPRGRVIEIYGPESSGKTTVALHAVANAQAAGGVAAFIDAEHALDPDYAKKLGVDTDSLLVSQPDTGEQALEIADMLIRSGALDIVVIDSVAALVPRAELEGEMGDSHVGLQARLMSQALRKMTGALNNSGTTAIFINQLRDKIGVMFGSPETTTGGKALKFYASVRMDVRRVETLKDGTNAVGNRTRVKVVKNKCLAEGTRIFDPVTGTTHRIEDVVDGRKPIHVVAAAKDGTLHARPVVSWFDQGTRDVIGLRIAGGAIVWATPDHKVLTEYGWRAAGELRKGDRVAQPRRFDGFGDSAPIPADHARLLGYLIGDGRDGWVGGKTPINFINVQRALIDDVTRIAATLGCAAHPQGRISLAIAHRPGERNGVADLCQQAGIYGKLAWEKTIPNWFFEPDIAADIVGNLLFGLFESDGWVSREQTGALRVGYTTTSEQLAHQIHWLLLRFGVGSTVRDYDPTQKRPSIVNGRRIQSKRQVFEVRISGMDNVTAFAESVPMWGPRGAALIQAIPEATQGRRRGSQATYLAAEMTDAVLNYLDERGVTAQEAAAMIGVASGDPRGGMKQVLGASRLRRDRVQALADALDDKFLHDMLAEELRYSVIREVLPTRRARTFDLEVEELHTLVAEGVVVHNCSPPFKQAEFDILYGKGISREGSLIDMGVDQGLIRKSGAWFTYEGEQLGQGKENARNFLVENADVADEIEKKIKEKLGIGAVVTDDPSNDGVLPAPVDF

| SMILES | EC50 |
| --- | --- |
| COCc1n[nH]c2c1C(c1ccc(OC)c(OC)c1)C(C#N)=C(N)O2 (configuration not stated) | 6.25 µM (active) |
| NS(=O)(=O)c1ccc(NN=C2C(=O)NC(=S)NC2=O)cc1 | 15.5 µM (active) |
| CC(=O)Nc1ccc(NC(=O)CSc2ncc(C(=O)Nc3ccccc3)c(=O)n2C)cc1 | 0.043 µM (active) |
| O=C1/C(=C/c2ccc(F)cc2)SC(=S)N1CC(=O)N1CCCCC1c1cccnc1 (configuration not stated) | 30.3 µM (active) |
| Cc1nn(Cc2ccccc2)c2c1C(c1ccncc1)C(C#N)=C(N)O2 (configuration not stated) | 3.43 µM (active) |
| CCOc1ccc(NC(=O)C(c2ccccn2)N(C(=O)CCl)c2ccc(F)cc2)cc1 (configuration not stated) | 2.67 µM (active) |
| COc1cc(/C=N/NC(=O)CC2(C)OCCCO2)ccc1OCc1ccccc1 | 0.81 µM (active) |

system: not listed separately; experiment: Luminescence Cell-Based Dose Response HTS to Identify Inhibitors of 5'UTR Stem-Loop Driven Prion Protein mRNA Translation in H4 Neuroglioblastoma Cells. [Related pubchem assays: 1827 (Project Summary), 1813 (Primary HTS)]; assay type: functional; details: not given

| SMILES | EC50 |
| --- | --- |
| Cc1cc(-n2c(SCC(=O)NCc3cccs3)nc3nnc(C)c-3c2N)ccc1Cl | > 120 µM (not active) |
| COc1ccc(C(=O)NC2CCCc3c2cnn3-c2ccccc2F)o1 (configuration not stated) | 18.9 µM (active) |
| O=C(Cn1cnc2c(oc3nc4c(cc32)CCCC4)c1=O)Nc1cccc(Cl)c1 | > 120 µM (not active) |
| CCOc1ccc(S(=O)(=O)N2CCCC(C(=O)NCc3cccnc3)C2)cc1C (configuration not stated) | 65.6 µM (active) |
| CC(NC(=O)C12CC3CC(CC(C3)C1)C2)C(=O)N/N=C/C1=C(N2CCOCC2)C(=C\c2ccccc2)/CC1 (configuration not stated) | > 120 µM (not active) |
| CCN(CC)c1ccc(/C=N/n2c(S)nnc2-c2ccccc2Br)cc1 | > 120 µM (not active) |
| CCNc1ccc(C(=O)N/N=C/c2c(C)nn(-c3ccccc3)c2N2CCCC2)cc1[N+](=O)[O-] | 12.7 µM (active) |

biological target: T2, Heat shock factor protein 1 (Mus musculus, UniProt P38532); experiment: inhibition of MG132-induced HSE-luciferase signal, confirmation, cell-based, NIH3T3, luminescence, dose retest (AID 2382); assay type: functional; details: not given;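 also: NIH3T3 fibroblasts with HSF1-driven luciferase reporter stressed by proteasome inhibitor MG132; luminescence from HSF1-driven luciferase expression after 8 hours of MG132 stress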
T2 sequence (P38532 whole entry): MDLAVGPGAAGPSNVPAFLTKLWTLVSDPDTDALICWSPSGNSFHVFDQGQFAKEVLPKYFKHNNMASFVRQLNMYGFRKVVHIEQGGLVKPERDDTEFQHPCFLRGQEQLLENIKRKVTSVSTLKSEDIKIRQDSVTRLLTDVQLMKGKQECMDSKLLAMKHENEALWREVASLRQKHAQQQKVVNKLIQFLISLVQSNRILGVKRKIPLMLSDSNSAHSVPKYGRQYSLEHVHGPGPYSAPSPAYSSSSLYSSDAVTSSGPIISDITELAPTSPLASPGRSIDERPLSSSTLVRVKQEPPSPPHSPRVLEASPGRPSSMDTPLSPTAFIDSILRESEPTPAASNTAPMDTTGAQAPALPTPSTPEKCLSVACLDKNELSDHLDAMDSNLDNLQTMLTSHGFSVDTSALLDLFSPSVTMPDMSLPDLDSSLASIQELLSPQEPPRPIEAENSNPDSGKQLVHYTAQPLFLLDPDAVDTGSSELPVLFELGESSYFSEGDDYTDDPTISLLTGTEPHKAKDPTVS

| SMILES | EC50 |
| --- | --- |
| CCN1C(=O)/C(=C/Nc2ccccc2)OC1=S | > 195 µM (not active) |
| CCOc1ccccc1OCCOCCOc1c(Cl)cccc1Cl | > 195 µM (not active) |
| CCOc1ccc(CNC(c2ccccc2)c2ccccc2)cc1 | > 195 µM (not active) |
| O=C(Nc1cccc(Cl)c1Cl)c1snnc1-c1ccccc1 | > 195 µM (not active) |
| CCOC(=O)c1ccc(NC(=S)NC(=O)C2CCCC2)cc1 | > 195 µM (not active) |

biological target: Paired box protein Pax-8 (Homo sapiens, UniProt Q06710); experiment: inhibitors of PAX8-driven TPO luciferase reporter, dose response, RMG-I cells, cherry-pick (AID 687027); assay type: functional, cell-based; details: not given;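 also: luciferase reporter driven by Pax8 target thyroperoxidase promoter measured by SteadyGlo luminescence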
Sequence (Q06710 whole entry): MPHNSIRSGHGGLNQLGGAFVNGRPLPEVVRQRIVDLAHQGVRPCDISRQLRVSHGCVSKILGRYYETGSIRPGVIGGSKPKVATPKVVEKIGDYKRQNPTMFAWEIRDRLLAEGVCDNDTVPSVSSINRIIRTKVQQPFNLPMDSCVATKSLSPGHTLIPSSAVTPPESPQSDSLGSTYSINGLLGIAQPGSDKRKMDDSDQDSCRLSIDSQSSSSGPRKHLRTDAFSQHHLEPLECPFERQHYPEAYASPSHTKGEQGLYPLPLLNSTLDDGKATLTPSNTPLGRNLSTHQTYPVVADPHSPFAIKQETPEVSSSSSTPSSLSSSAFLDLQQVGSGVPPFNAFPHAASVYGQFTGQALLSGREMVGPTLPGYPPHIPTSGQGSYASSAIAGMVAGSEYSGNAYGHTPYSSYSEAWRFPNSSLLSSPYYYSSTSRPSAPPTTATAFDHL

| SMILES | AC50 |
| --- | --- |
| O=C(CCc1ccc(S(=O)(=O)NCc2ccccc2)cc1)NCc1ccco1 | 47.9 µM (active) |
| CC(=O)c1sc(NC(=O)CCS(=O)(=O)c2ccc(Cl)cc2)nc1C | 5.01 µM (active) |
| CCC(=O)Oc1ccc2c(C)cc(=O)oc2c1C(=O)c1ccccc1 | 42.4 µM (active) |
| C[C@H]1CN([C@@H](C)CO)C(=O)Cc2cc(NC(=O)Nc3ccc4c(c3)OCO4)ccc2O[C@@H]1CN(C)Cc1ccc(-c2ccccc2)cc1 | 5.45 µM (active) |
| COC(=O)[C@H]1[C@@H](O)[C@@]2(O)c3c(OC)cc(OC)cc3O[C@@]2(c2ccc(OC)cc2)[C@@H]1c1ccc(F)cc1 | 0.465 µM (active) |

system: not listed separately; experiment: inhibitors of firefly luciferase expression or activity, dose response, H4 neuroglioma cells, luminescence (AID 1990); assay type: functional, cell-based; details: not given

| SMILES | EC50 |
| --- | --- |
| Cc1cc(-n2c(SCC(=O)NCc3cccs3)nc3nnc(C)c-3c2N)ccc1Cl | 14.4 µM (active) |
| COc1ccc(C(=O)NC2CCCc3c2cnn3-c2ccccc2F)o1 (configuration not stated) | 41 µM (active) |
| O=C(Cn1cnc2c(oc3nc4c(cc32)CCCC4)c1=O)Nc1cccc(Cl)c1 | 13 µM (active) |
| CCOc1ccc(S(=O)(=O)N2CCCC(C(=O)NCc3cccnc3)C2)cc1C (configuration not stated) | 14.2 µM (active) |
| CC(NC(=O)C12CC3CC(CC(C3)C1)C2)C(=O)N/N=C/C1=C(N2CCOCC2)C(=C\c2ccccc2)/CC1 (configuration not stated) | 15.7 µM (active) |
| CCN(CC)c1ccc(/C=N/n2c(S)nnc2-c2ccccc2Br)cc1 | > 120 µM (not active) |
| CCNc1ccc(C(=O)N/N=C/c2c(C)nn(-c3ccccc3)c2N2CCCC2)cc1[N+](=O)[O-] | 18.5 µM (active) |

system: not listed separately; experiment: Luminescence Cell-Based Dose Retest to Confirm Inhibitors of Cancer Stem Cells. [Related pubchem assays (depositor defined):AID2717, AID2721]; assay type: functional; details: Homo sapiens

| SMILES | AC50 |
| --- | --- |
| CC(=O)Nc1ccc(NC(=O)CSc2ncc(C(=O)Nc3ccccc3)c(=O)n2C)cc1 | 5.28 µM (active) |

system: not listed separately; experiment: inhibitors of SNCA 5'UTR-driven reporter translation, confirmation, H4 neuroglioma cells, luminescence (AID 1988); assay type: functional, cell-based; details: not given

| SMILES | EC50 |
| --- | --- |
| Cc1cc(-n2c(SCC(=O)NCc3cccs3)nc3nnc(C)c-3c2N)ccc1Cl | 15.3 µM (active) |
| COc1ccc(C(=O)NC2CCCc3c2cnn3-c2ccccc2F)o1 (configuration not stated) | 22.2 µM (active) |
| O=C(Cn1cnc2c(oc3nc4c(cc32)CCCC4)c1=O)Nc1cccc(Cl)c1 | 10.2 µM (active) |
| CCOc1ccc(S(=O)(=O)N2CCCC(C(=O)NCc3cccnc3)C2)cc1C (configuration not stated) | 19.3 µM (active) |
| CC(NC(=O)C12CC3CC(CC(C3)C1)C2)C(=O)N/N=C/C1=C(N2CCOCC2)C(=C\c2ccccc2)/CC1 (configuration not stated) | 16.4 µM (active) |
| CCN(CC)c1ccc(/C=N/n2c(S)nnc2-c2ccccc2Br)cc1 | > 120 µM (not active) |
| CCNc1ccc(C(=O)N/N=C/c2c(C)nn(-c3ccccc3)c2N2CCCC2)cc1[N+](=O)[O-] | 30.6 µM (active) |

biological target: Cytochrome P450 2C9 (Homo sapiens, UniProt P11712); details: not given
Sequence (P11712 whole entry): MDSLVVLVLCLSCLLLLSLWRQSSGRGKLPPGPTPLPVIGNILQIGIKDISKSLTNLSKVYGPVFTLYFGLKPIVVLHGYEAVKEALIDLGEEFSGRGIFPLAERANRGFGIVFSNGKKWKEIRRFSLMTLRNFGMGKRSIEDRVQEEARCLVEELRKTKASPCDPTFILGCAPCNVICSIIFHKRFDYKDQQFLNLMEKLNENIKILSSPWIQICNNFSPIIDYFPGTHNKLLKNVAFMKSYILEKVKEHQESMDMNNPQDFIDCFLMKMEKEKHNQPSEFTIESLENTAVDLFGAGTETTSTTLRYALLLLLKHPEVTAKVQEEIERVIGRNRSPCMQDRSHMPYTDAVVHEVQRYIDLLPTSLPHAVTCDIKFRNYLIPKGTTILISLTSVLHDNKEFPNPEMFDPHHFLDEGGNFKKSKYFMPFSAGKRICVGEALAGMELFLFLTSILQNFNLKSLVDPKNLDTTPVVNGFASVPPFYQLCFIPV

| SMILES | AC50 |
| --- | --- |
| O=C(Nc1cccc(Cl)c1Cl)c1snnc1-c1ccccc1 | 3.16 µM (inconclusive) |

biological target: T3, Replicative DNA helicase DnaB (Mycobacterium tuberculosis, UniProt P9WMR3); experiment: DnaB intein splicing inhibitors, dose response, biochemical, cell-free fluorescence (AID 449749); assay type: functional; details: not given
T3 sequence (P9WMR3 whole entry): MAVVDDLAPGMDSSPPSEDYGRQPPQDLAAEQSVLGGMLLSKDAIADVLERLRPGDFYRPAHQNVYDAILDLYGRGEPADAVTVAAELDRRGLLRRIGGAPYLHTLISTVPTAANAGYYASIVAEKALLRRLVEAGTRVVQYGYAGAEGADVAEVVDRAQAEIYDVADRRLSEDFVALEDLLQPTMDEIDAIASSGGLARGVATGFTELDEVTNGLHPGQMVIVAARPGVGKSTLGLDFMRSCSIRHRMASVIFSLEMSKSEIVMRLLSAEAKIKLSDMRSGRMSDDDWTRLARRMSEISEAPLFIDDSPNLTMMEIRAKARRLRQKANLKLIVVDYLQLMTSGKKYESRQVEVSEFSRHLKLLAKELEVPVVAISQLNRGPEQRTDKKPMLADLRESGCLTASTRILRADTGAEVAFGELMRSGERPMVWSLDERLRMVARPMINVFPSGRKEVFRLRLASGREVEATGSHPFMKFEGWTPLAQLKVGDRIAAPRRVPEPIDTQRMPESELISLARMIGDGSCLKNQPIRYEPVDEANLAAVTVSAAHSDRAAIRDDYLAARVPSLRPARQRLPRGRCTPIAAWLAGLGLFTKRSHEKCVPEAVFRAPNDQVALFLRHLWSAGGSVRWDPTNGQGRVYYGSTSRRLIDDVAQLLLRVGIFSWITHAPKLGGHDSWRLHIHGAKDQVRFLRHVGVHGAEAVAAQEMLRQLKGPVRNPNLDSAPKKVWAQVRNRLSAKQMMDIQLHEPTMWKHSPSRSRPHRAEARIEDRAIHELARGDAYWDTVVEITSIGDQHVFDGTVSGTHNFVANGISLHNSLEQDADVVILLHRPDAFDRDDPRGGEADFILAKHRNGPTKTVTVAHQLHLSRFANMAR

| SMILES | AC50 |
| --- | --- |
| COCc1n[nH]c2c1C(c1ccc(OC)c(OC)c1)C(C#N)=C(N)O2 (configuration not stated) | 9.47 µM (active) |
| NS(=O)(=O)c1ccc(NN=C2C(=O)NC(=S)NC2=O)cc1 | 51.7 µM (active) |
| CC(=O)Nc1ccc(NC(=O)CSc2ncc(C(=O)Nc3ccccc3)c(=O)n2C)cc1 | 0.131 µM (active) |
| O=C1/C(=C/c2ccc(F)cc2)SC(=S)N1CC(=O)N1CCCCC1c1cccnc1 (configuration not stated) | 13.1 µM (active) |
| Cc1nn(Cc2ccccc2)c2c1C(c1ccncc1)C(C#N)=C(N)O2 (configuration not stated) | 11.1 µM (active) |
| CCOc1ccc(NC(=O)C(c2ccccn2)N(C(=O)CCl)c2ccc(F)cc2)cc1 (configuration not stated) | 7.1 µM (active) |
| COc1cc(/C=N/NC(=O)CC2(C)OCCCO2)ccc1OCc1ccccc1 | 2.64 µM (active) |
